Results reported in patent publication US9617244B2, “Antibacterial quinoline derivatives” (JANSSEN PHARMACEUTICA NV, priority 2012, dated 2017).
Values after ≈ are worked out from the molar mass of the structure shown.

System: Staphylococcus aureus (ATCC29213)
Assay: In-vitro anti-bacterial activity, microtitre plate assay, IC90 determination (non-mycobacterial strains)
Assay type: cell-based
Settings: 90% inhibitory concentration for bacterial growth, 24 hours, resazurin fluorescence
Summary of the method: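 Inoculum of about 100 TCID50 (10–60 CFU/well) in Mueller-Hinton broth, serial five-fold compound dilutions, 24 h at 37 °C in air. Growth read by resazurin fluorescence (ex 530/em 590 nm); IC90 in μg/ml as 90% growth inhibition.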

Row | Compound | IC90 STA B29213 [µg/mL]
1 | COc1nc2ccc(Cl)cc2cc1C(c1ccc(Cl)cc1)C1(O)CCNC(c2ccc(F)cc2C)C1 (single isomer, unassigned) [Compound 2] | 13.20 (≈ 25.1 µM)
2 | COc1nc2ccc(Cl)cc2cc1C(c1ccc(Cl)cc1)C1(O)CCNC(c2ccc(F)cc2C)C1 (single isomer, unassigned) [Compound 3] | 0.83 (≈ 1.58 µM)
3 | COc1nc2ccc(Br)cc2cc1C(c1ccc(Cl)cc1)C1(O)CCNC(Cc2ccccc2)C1 (centres unmarked) [Compound 33] | 3.48 (≈ 6.31 µM)
4 | COc1nc2ccc(Br)cc2cc1C(c1cccc(Cl)c1)C1(O)CCNC(Cc2ccccc2)C1 (centres unmarked) [Compound 34] | 3.48 (≈ 6.31 µM)
5 | COc1nc2ccc(Cl)cc2cc1C(c1ccc(Cl)cc1)C1(O)CCNC(Cc2ccccc2)C1 (centres unmarked) [Compound 37] | 1.14 (≈ 2.25 µM)
6 | COc1nc2ccc(S(C)(=O)=O)cc2cc1C(c1cccc(Cl)c1)C1(O)CCNC(c2ccc(F)cc2C)C1 (centres unmarked) [Compound 44] | 7.16 (≈ 12.6 µM)
7 | COc1nc2ccc(S(C)(=O)=O)cc2cc1C(c1cccc(Cl)c1)C1(O)CCNC(c2ccc(F)cc2C)C1 (centres unmarked) [Compound 45] | 1.80 (≈ 3.16 µM)
8 | COc1nc2ccc(S(C)(=O)=O)cc2cc1C(c1cccc(Cl)c1)C1(O)CCNC(c2ccc(F)cc2C)C1 (centres unmarked) [Compound 46] | 3.59 (≈ 6.31 µM)
9 | COc1nc2ccc(S(C)(=O)=O)cc2cc1C(c1cccc(Cl)c1)C1(O)CCNC(c2ccc(F)cc2C)C1 (centres unmarked) [Compound 47] | 14.30 (≈ 25.1 µM)
10 | COc1nc2ccc(F)cc2cc1C(c1ccc(Cl)cc1)C1(O)CCNC(Cc2ccccc2)C1 (centres unmarked) [Compound 52] | 1.23 (≈ 2.51 µM)
11 | COc1nc2ccc(F)cc2cc1C(c1ccc(Cl)cc1)C1(O)CCNC(Cc2ccccc2)C1 (centres unmarked) [Compound 53] | 1.55 (≈ 3.16 µM)
12 | CS(=O)(=O)c1ccc2[nH]c(=O)c(C(c3ccc(Cl)cc3)C3(O)CCNC(Cc4ccc(F)cc4)C3)cc2c1 (centres unmarked) [Compound 56] | >13.94
13 | COc1nc2ccc(Br)cc2cc1C(c1ccccc1)C1(O)CCNC(c2ccc(F)cc2C)C1 (centres unmarked) [Compound 61] | 1.69 (≈ 3.16 µM)
14 | CCCN(C)CC1CC(O)(C(c2ccc(Cl)cc2)c2cc3cc(Cl)ccc3nc2OC)CCN1 (centres unmarked) [Compound 63] | 3.17 (≈ 6.31 µM)
15 | COc1nc2ccc(S(C)(=O)=O)cc2cc1C(c1ccc(Cl)cc1)C1(O)CCNCC1Cc1cccc[n+]1[O-] (centres unmarked) [Compound 66] | >14.27
16 | COc1nc2ccc(Br)cc2cc1C(c1ccc(Cl)cc1)C1(O)CCNC(Cc2ccccc2)C1 (centres unmarked) [Compound 70] | 4.38 (≈ 7.94 µM)
17 | COc1nc2ccc(Br)cc2cc1C(c1ccc(Cl)cc1)C1(O)CCNC(Cc2ccccc2)C1 (centres unmarked) [Compound 71] | 4.38 (≈ 7.94 µM)
18 | CCn1c(=O)c(C(c2ccc(Cl)cc2)C2(O)CCNC(Cc3ccccc3)C2)cc2cc(Br)ccc21 (centres unmarked) [Compound 82] | 2.84 (≈ 5.02 µM)
19 | CCn1c(=O)c(C(c2ccc(Cl)cc2)C2(O)CCNC(Cc3ccccc3)C2)cc2cc(Br)ccc21 (centres unmarked) [Compound 83] | 7.12 (≈ 12.6 µM)
20 | COc1nc2ccc(Cl)cc2cc1C(c1ccc(Cl)cc1)C1(O)CCNCC1Cc1ccccn1 (centres unmarked) [Compound 438] | 3.21 (≈ 6.31 µM)
21 | COc1nc2ccc(Cl)cc2cc1C(c1ccc(Cl)cc1)C1(O)CCNCC1Cc1ccccn1 (centres unmarked) [Compound 439] | 12.77 (≈ 25.1 µM)
22 | COc1nc2ccc(Cl)cc2cc1C(c1ccc(Cl)cc1)C1(O)CCNCC1c1cccnc1 (centres unmarked) [Compound 443] | 4.41 (≈ 8.92 µM)
23 | COc1nc2ccc(Cl)cc2cc1C(c1ccc(Cl)cc1)C1(O)CCNCC1c1cccnc1 (centres unmarked) [Compound 444] | 12.42 (≈ 25.1 µM)
24 | COc1nc2ccc(Cl)cc2cc1C(c1ccc(Cl)cc1)C1(O)CCNCC1c1cccnc1 (centres unmarked) [Compound 445] | 3.50 (≈ 7.08 µM)

System: Mycobacterium smegmatis (ATCC607)
Assay: In-vitro anti-bacterial activity against strain M. Smegmatis ATCC607
Assay type: cell-based
Settings: 90% inhibitory concentration for bacterial growth, 48 hours, Alamar Blue fluorescence
Summary of the method: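 Serial five-fold compound dilutions in BSA-supplemented wells, inoculated with ~250 CFU/well in Mueller-Hinton broth, incubated 48 h at 37 °C, 5% CO2. Growth read by Alamar Blue fluorescence (ex 530/em 590 nm); IC90 in μg/ml.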

Row | Compound | IC90 MSM 607 [µg/mL]
25 | COc1nc2ccc(Cl)cc2cc1C(c1ccc(Cl)cc1)C1(O)CCNC(c2ccc(F)cc2C)C1 (single isomer, unassigned) [Compound 2] | 13.20 (≈ 25.1 µM)
26 | COc1nc2ccc(Cl)cc2cc1C(c1ccc(Cl)cc1)C1(O)CCNC(c2ccc(F)cc2C)C1 (single isomer, unassigned) [Compound 3] | 0.83 (≈ 1.58 µM)
27 | COc1nc2ccc(Br)cc2cc1C(c1ccc(Cl)cc1)C1(O)CCNC(Cc2ccccc2)C1 (centres unmarked) [Compound 33] | >3.48
28 | COc1nc2ccc(Br)cc2cc1C(c1cccc(Cl)c1)C1(O)CCNC(Cc2ccccc2)C1 (centres unmarked) [Compound 34] | 2.20 (≈ 3.99 µM)
29 | COc1nc2ccc(Cl)cc2cc1C(c1ccc(Cl)cc1)C1(O)CCNC(Cc2ccccc2)C1 (centres unmarked) [Compound 37] | 0.90 (≈ 1.77 µM)
30 | COc1nc2ccc(S(C)(=O)=O)cc2cc1C(c1cccc(Cl)c1)C1(O)CCNC(c2ccc(F)cc2C)C1 (centres unmarked) [Compound 44] | 3.59 (≈ 6.31 µM)
31 | COc1nc2ccc(S(C)(=O)=O)cc2cc1C(c1cccc(Cl)c1)C1(O)CCNC(c2ccc(F)cc2C)C1 (centres unmarked) [Compound 45] | 1.14 (≈ 2 µM)
32 | COc1nc2ccc(S(C)(=O)=O)cc2cc1C(c1cccc(Cl)c1)C1(O)CCNC(c2ccc(F)cc2C)C1 (centres unmarked) [Compound 46] | 1.80 (≈ 3.16 µM)
33 | COc1nc2ccc(S(C)(=O)=O)cc2cc1C(c1cccc(Cl)c1)C1(O)CCNC(c2ccc(F)cc2C)C1 (centres unmarked) [Compound 47] | 5.69 (≈ 10 µM)
34 | COc1nc2ccc(F)cc2cc1C(c1ccc(Cl)cc1)C1(O)CCNC(Cc2ccccc2)C1 (centres unmarked) [Compound 52] | 0.62 (≈ 1.26 µM)
35 | COc1nc2ccc(F)cc2cc1C(c1ccc(Cl)cc1)C1(O)CCNC(Cc2ccccc2)C1 (centres unmarked) [Compound 53] | 2.46 (≈ 5.01 µM)
36 | CS(=O)(=O)c1ccc2[nH]c(=O)c(C(c3ccc(Cl)cc3)C3(O)CCNC(Cc4ccc(F)cc4)C3)cc2c1 (centres unmarked) [Compound 56] | >13.94
37 | COc1nc2ccc(Br)cc2cc1C(c1ccccc1)C1(O)CCNC(c2ccc(F)cc2C)C1 (centres unmarked) [Compound 61] | 0.85 (≈ 1.59 µM)
38 | CCCN(C)CC1CC(O)(C(c2ccc(Cl)cc2)c2cc3cc(Cl)ccc3nc2OC)CCN1 (centres unmarked) [Compound 63] | 1.59 (≈ 3.16 µM)
39 | COc1nc2ccc(S(C)(=O)=O)cc2cc1C(c1ccc(Cl)cc1)C1(O)CCNCC1Cc1cccc[n+]1[O-] (centres unmarked) [Compound 66] | >14.27
40 | CCn1c(=O)c(C(c2ccc(Cl)cc2)C2(O)CCNC(Cc3ccccc3)C2)cc2cc(Br)ccc21 (centres unmarked) [Compound 82] | 1.60 (≈ 2.83 µM)
41 | CCn1c(=O)c(C(c2ccc(Cl)cc2)C2(O)CCNC(Cc3ccccc3)C2)cc2cc(Br)ccc21 (centres unmarked) [Compound 83] | 3.57 (≈ 6.31 µM)

System: not given
Assay: not given
Settings: not given

Row | Compound | melting point [°C]
42 | COc1nc2ccc(Cl)cc2cc1C(c1ccc(Cl)cc1)C1(O)CCNC(c2ccc(F)cc2C)C1 (single isomer, unassigned) [Compound 2] | 126
43 | COc1nc2ccc(Cl)cc2cc1C(c1ccc(Cl)cc1)C1(O)CCNC(c2ccc(F)cc2C)C1 (single isomer, unassigned) [Compound 3] | 146
44 | COc1nc2ccc(Br)cc2cc1C(c1ccc(Cl)cc1)C1(O)CCNC(Cc2ccccc2)C1 (centres unmarked) [Compound 33] | 177
45 | COc1nc2ccc(Br)cc2cc1C(c1cccc(Cl)c1)C1(O)CCNC(Cc2ccccc2)C1 (centres unmarked) [Compound 34] | 152
46 | COc1nc2ccc(Cl)cc2cc1C(c1ccc(Cl)cc1)C1(O)CCNC(Cc2ccccc2)C1 (centres unmarked) [Compound 37] | 107
47 | COc1nc2ccc(S(C)(=O)=O)cc2cc1C(c1cccc(Cl)c1)C1(O)CCNC(c2ccc(F)cc2C)C1 (centres unmarked) [Compound 44] | 148
48 | COc1nc2ccc(S(C)(=O)=O)cc2cc1C(c1cccc(Cl)c1)C1(O)CCNC(c2ccc(F)cc2C)C1 (centres unmarked) [Compound 45] | 160
49 | COc1nc2ccc(S(C)(=O)=O)cc2cc1C(c1cccc(Cl)c1)C1(O)CCNC(c2ccc(F)cc2C)C1 (centres unmarked) [Compound 46] | 145
50 | COc1nc2ccc(S(C)(=O)=O)cc2cc1C(c1cccc(Cl)c1)C1(O)CCNC(c2ccc(F)cc2C)C1 (centres unmarked) [Compound 47] | 174
51 | COc1nc2ccc(F)cc2cc1C(c1ccc(Cl)cc1)C1(O)CCNC(Cc2ccccc2)C1 (centres unmarked) [Compound 52] | 176
52 | COc1nc2ccc(F)cc2cc1C(c1ccc(Cl)cc1)C1(O)CCNC(Cc2ccccc2)C1 (centres unmarked) [Compound 53] | 102
53 | CS(=O)(=O)c1ccc2[nH]c(=O)c(C(c3ccc(Cl)cc3)C3(O)CCNC(Cc4ccc(F)cc4)C3)cc2c1 (centres unmarked) [Compound 56] | 140
54 | COc1nc2ccc(Br)cc2cc1C(c1ccccc1)C1(O)CCNC(c2ccc(F)cc2C)C1 (centres unmarked) [Compound 61] | 141
55 | CCCN(C)CC1CC(O)(C(c2ccc(Cl)cc2)c2cc3cc(Cl)ccc3nc2OC)CCN1 (centres unmarked) [Compound 63] | 157
56 | COc1nc2ccc(S(C)(=O)=O)cc2cc1C(c1ccc(Cl)cc1)C1(O)CCNCC1Cc1cccc[n+]1[O-] (centres unmarked) [Compound 66] | 184
57 | COc1nc2ccc(Br)cc2cc1C(c1ccc(Cl)cc1)C1(O)CCNC(Cc2ccccc2)C1 (centres unmarked) [Compound 70] | 112
58 | COc1nc2ccc(Br)cc2cc1C(c1ccc(Cl)cc1)C1(O)CCNC(Cc2ccccc2)C1 (centres unmarked) [Compound 71] | 138
59 | CCn1c(=O)c(C(c2ccc(Cl)cc2)C2(O)CCNC(Cc3ccccc3)C2)cc2cc(Br)ccc21 (centres unmarked) [Compound 82] | 230
60 | CCn1c(=O)c(C(c2ccc(Cl)cc2)C2(O)CCNC(Cc3ccccc3)C2)cc2cc(Br)ccc21 (centres unmarked) [Compound 83] | 219
61 | COc1nc2ccc(Cl)cc2cc1C(c1ccc(Cl)cc1)C1(O)CCNCC1Cc1ccccn1 (centres unmarked) [Compound 438] | 188
62 | COc1nc2ccc(Cl)cc2cc1C(c1ccc(Cl)cc1)C1(O)CCNCC1Cc1ccccn1 (centres unmarked) [Compound 439] | 132
63 | COc1nc2ccc(Cl)cc2cc1C(c1ccc(Cl)cc1)C1(O)CCNCC1c1cccnc1 (centres unmarked) [Compound 443] | 156
64 | COc1nc2ccc(Cl)cc2cc1C(c1ccc(Cl)cc1)C1(O)CCNCC1c1cccnc1 (centres unmarked) [Compound 444] | 172
65 | COc1nc2ccc(Cl)cc2cc1C(c1ccc(Cl)cc1)C1(O)CCNCC1c1cccnc1 (centres unmarked) [Compound 445] | 154
